# Data taken from the supplement of paper PMC13380429.
# ± gives the standard deviation of the averaged measurements.
# What was measured:
# Conditions in all cases: 72 h
# Calu-3 [1] = assay: relative viability EC50 (midpoint between 100% and the lowest measured viability); higher = less toxic
# Caco-2 [2] = assay: as above
# U2OS [3] = assay: as above
# HepG2 [4] = assay: as above
# Vero E6 [5] = assay: as above
# Calu-3 [6] = assay: drug sensitivity score (DSS) for viability; higher = more toxic; extreme values may be limits of the assay
# Caco-2 [7] = assay: as above
# U2OS [8] = assay: as above
# HepG2 [9] = assay: as above
# Vero E6 [10] = assay: as above
# Calu-3 [11] = assay: cell viability relative to DMSO; higher = less toxic
# Caco-2 [12] = assay: as above
# U2OS [13] = assay: as above
# HepG2 [14] = assay: as above
# Vero E6 [15] = assay: as above
SMILES,relative viability EC50 (Calu-3 [1]) [µM],relative viability EC50 (Caco-2 [2]) [µM],relative viability EC50 (U2OS [3]) [µM],relative viability EC50 (HepG2 [4]) [µM],relative viability EC50 (Vero E6 [5]) [µM],drug sensitivity score (Calu-3 [6]),drug sensitivity score (Caco-2 [7]),drug sensitivity score (U2OS [8]),drug sensitivity score (HepG2 [9]),drug sensitivity score (Vero E6 [10]),cell viability (Calu-3 [11]; 1 nM) [%],cell viability (Calu-3 [11]; 10 nM) [%],cell viability (Calu-3 [11]; 100 nM) [%],cell viability (Calu-3 [11]; 1000 nM) [%],cell viability (Calu-3 [11]; 10000 nM) [%],cell viability (Caco-2 [12]; 1 nM) [%],cell viability (Caco-2 [12]; 10 nM) [%],cell viability (Caco-2 [12]; 100 nM) [%],cell viability (Caco-2 [12]; 1000 nM) [%],cell viability (Caco-2 [12]; 10000 nM) [%],cell viability (U2OS [13]; 1 nM) [%],cell viability (U2OS [13]; 10 nM) [%],cell viability (U2OS [13]; 100 nM) [%],cell viability (U2OS [13]; 1000 nM) [%],cell viability (U2OS [13]; 10000 nM) [%],cell viability (HepG2 [14]; 1 nM) [%],cell viability (HepG2 [14]; 10 nM) [%],cell viability (HepG2 [14]; 100 nM) [%],cell viability (HepG2 [14]; 1000 nM) [%],cell viability (HepG2 [14]; 10000 nM) [%],cell viability (Vero E6 [15]; 1 nM) [%],cell viability (Vero E6 [15]; 10 nM) [%],cell viability (Vero E6 [15]; 100 nM) [%],cell viability (Vero E6 [15]; 1000 nM) [%],cell viability (Vero E6 [15]; 10000 nM) [%]
Nc1nc(=O)c2nc(CNc3ccc(C(=O)N[C@@H](CCC(=O)O)C(=O)O)cc3)cnc2[nH]1 [folic-acid],> 10,> 10,> 10,> 10,> 10,0,0,0,0,0,93.5,102,88.1,106,97.8,89.2,103,101,95.3,90.7,97.7,101,97,99.4,96.4,106,101,99.8,97.2,99.4,99.9,102,97,101,92.8
O=C(COP(=O)(O)O)[C@@H](O)[C@H](O)[C@H](O)COP(=O)(O)O [fosfructose],> 10,> 10,> 10,> 10,> 10,0,0,0,0,0,101,101,99.9,98.8,97.2,107,118,91.9,94.7,93.5,97.9,106,106,105,99.3,108,83,73.1,99.1,95.4,97.6,98.1,102,102,94.7
Cc1ccc(C)c(OCCCC(C)(C)C(=O)O)c1 [gemfibrozil],> 10,> 10,> 10,> 10,> 10,0,0,0,0,0,104,104,109,93.1,105,102,107,106,93.8,101,104,101,104,99.1,102,98.2,99.9,102,106,104,98.4,101,96.5,100,95.9
O=C(O)Cc1cccnc1C(=O)O [homoquinolinic-acid],> 10,> 10,> 10,> 10,> 10,0,0,0,0,0,92.7,89.2,97.4,95.6,111,99.5,104,101,96.3,105,97.4,100,100,99.6,99.7,104,93.8,95.3,94,93.9,105,106,102,103,94
C[C@]12CCC(=O)C=C1CC[C@@H]1[C@@H]2[C@@H](O)C[C@@]2(C)[C@H]1CC[C@]2(O)C(=O)COC(=O)CCC(=O)O [hydrocortisone-hemisuccinate],> 10,> 10,> 10,> 10,> 10,0,0,0,0,0,93.6,100,101,101,95.9,104,98.7,101,106,111,103,101,104,100,99.6,92.9,113,108,96.1,92.1,96.3,96.8,98.3,93.5,102
NS(=O)(=O)c1cc2c(cc1C(F)(F)F)NCNS2(=O)=O [hydroflumethiazide],> 10,> 10,> 10,> 10,> 10,0,0,0,0,0,97.1,101,96.7,103,105,99.5,99.1,89.7,98.8,92.2,102,101,95.3,101,98.2,104,103,114,99.3,96.8,105,92.2,98.5,97.2,107
CC(=O)[C@]1(O)Cc2c(O)c3c(c(O)c2[C@@H](O[C@H]2C[C@H](N)[C@H](O)[C@H](C)O2)C1)C(=O)c1ccccc1C3=O [idarubicin],0.0921,0.117,0.128,0.016,0.12,21,20.7,22.2,32.2,22,104,90.1,48.6,27.7,9.7,103,96.1,62.1,10.8,17.4,100,86.3,60.7,1,0,94.8,50.3,29.7,0,0.1,106,94,58.2,6.1,2.9
COC1=C(OC)C(=O)C(CCCCCCCCCCO)=C(C)C1=O [idebenone],> 10,> 10,> 10,> 10,> 10,0,0.1,0,0,0,100,104,90.3,98,95.5,96.4,101,103,98.4,88.6,98.6,105,94.9,97.7,93.8,96.1,95.6,99.4,95.9,97.7,102,100,96.9,97.8,97.7
CC(=O)N(CC(O)CO)c1c(I)c(C(=O)NCC(O)CO)c(I)c(C(=O)NCC(O)CO)c1I (stereo not given) [iohexol],> 10,> 10,> 10,> 10,> 10,0,0,0,0,0,104 ± 4.5,95.5 ± 2.8,95.8 ± 1.3,104 ± 15,103.7 ± 0.99,95.9 ± 4.7,101 ± 3,101 ± 2.3,106 ± 6.4,96.3 ± 6,98 ± 4.5,99.2 ± 1.8,99.4 ± 2,99.9 ± 1.1,104.5 ± 0.14,96 ± 9.3,103 ± 4.3,99 ± 5.9,102 ± 11,91.7 ± 3,96.2 ± 3.1,101 ± 2.2,98.7 ± 7.5,99.7 ± 2.1,106 ± 6.8
CC(C)CC(N)=O [isovaleramide],> 10,> 10,> 10,> 10,> 10,0,0,0,0,0,113,103,97.1,105,95.4,106,92.6,99.1,99.4,101,102,92.8,99.3,89.1,96.7,103,99.4,101,95.5,101,102,101,102,97.9,93.1
CS(=O)(=O)c1cc(F)cc2c3c(n(Cc4ccc(Cl)cc4)c12)[C@@H](CC(=O)O)CC3 [laropiprant],> 10,> 10,> 10,> 10,> 10,0,0,0,0,0,101,95.4,90.3,110,94.6,95.4,102,91,95.4,88.5,100,101,98.3,106,97.5,99,94.2,100,98.6,101,102,99.6,106,98.2,91.9
CCCCCCCCCCCC(=O)O [lauric-acid],> 10,> 10,> 10,> 10,> 10,0,0,0,0,0,102,108,101,100,97.5,94.1,102,111,110,98.2,102,95.3,102,97.6,98.1,105,106,87.4,96,94.3,111,113,101,104,93.5
[NH-]c1c[n+](N2CCOCC2)no1 [linsidomine],> 10,> 10,> 10,> 10,> 10,0,0,0,0,0,100,96,105,94.3,116,102,96.1,95.8,96.1,89.4,105,98.8,100,96.3,101,96.9,106,97.7,96.8,104,98.9,99.3,95.6,100,91.1
COc1cc(C[C@H](C)[C@H](C)Cc2ccc3c(c2)OCO3)ccc1O [macelignan],> 10,> 10,> 10,> 10,> 10,0,0,0,3.3,0,99.3,102,102,101,103,87.3,102,93.9,96.6,87.3,98.5,99,94,101,91.5,98.4,103,92.1,81.1,86.3,100,106,98.9,95.4,101
